Measurements: the supplement of paper PMC10307832

Assays:
Test in all cases: relative viability (nuclei count vs DMSO), 5 days (fraction); higher = more cells survive
[1] = compound: Cc1ccc2nc(NCCN)c3ncc(C)n3c2c1 + Cc1cc(Nc2cc(N3CCN(C)CC3)nc(Sc3ccc(NC(=O)C4CC4)cc3)n2)n[nH]1 [Tozasertib] (partner 0.1 µM)
Summary of the method: (§1)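 Each reported value is a median over duplicate plates. It expresses relative viability: treated-well nuclei count divided by vehicle-well nuclei count. Lung cancer cell lines in 1536-well plates were dosed by pin tool a day after seeding, alone with one drug or with a fixed anchor-drug dose plus five library-drug doses (not always all listed) in √10 steps, and nuclei were counted after 5 days.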

[2] = compound: Cc1ccc2nc(NCCN)c3ncc(C)n3c2c1 + N=C(N)NC(=N)NCCc1ccccc1 [Phenformin] (partner 250 µM)
Summary of the method: as §1

Salubrinal + Bortezomib = compound: O=C(/C=C/c1ccccc1)NC(NC(=S)Nc1cccc2cccnc12)C(Cl)(Cl)Cl [Salubrinal] + CC(C)C[C@H](NC(=O)[C@H](Cc1ccccc1)NC(=O)c1cnccn1)B(O)O [Bortezomib] (partner 0.002 µM)
Summary of the method: as §1

Salubrinal + Lapatinib = compound: O=C(/C=C/c1ccccc1)NC(NC(=S)Nc1cccc2cccnc12)C(Cl)(Cl)Cl [Salubrinal] + CS(=O)(=O)CCNCc1ccc(-c2ccc3ncnc(Nc4ccc(OCc5cccc(F)c5)c(Cl)c4)c3c2)o1 [Lapatinib] (partner 2 µM)
Summary of the method: as §1

Cell Line | relative viability ([1]; first compound 0.04 µM) | relative viability ([1]; first compound 0.1265 µM) | relative viability ([1]; first compound 0.4 µM) | relative viability ([1]; first compound 1.265 µM) | relative viability ([1]; first compound 4 µM) | relative viability ([2]; first compound 0.04 µM) | relative viability ([2]; first compound 0.1265 µM) | relative viability ([2]; first compound 0.4 µM) | relative viability ([2]; first compound 1.265 µM) | relative viability ([2]; first compound 4 µM) | relative viability (Salubrinal + Bortezomib; first compound 0.08 µM) | relative viability (Salubrinal + Bortezomib; first compound 0.253 µM) | relative viability (Salubrinal + Bortezomib; first compound 0.8 µM) | relative viability (Salubrinal + Bortezomib; first compound 2.53 µM) | relative viability (Salubrinal + Bortezomib; first compound 8 µM) | relative viability (Salubrinal + Lapatinib; first compound 0.08 µM) | relative viability (Salubrinal + Lapatinib; first compound 0.253 µM) | relative viability (Salubrinal + Lapatinib; first compound 0.8 µM) | relative viability (Salubrinal + Lapatinib; first compound 2.53 µM) | relative viability (Salubrinal + Lapatinib; first compound 8 µM)
NCI-H2085 | 0.801 | 0.765 | 0.881 | 0.703 | 0.802 | 0.817 | 0.762 | 0.711 | 0.722 | 0.744 | 1.07 | 0.877 | 1.04 | 1.03 | 1.05 | 0.684 | 0.793 | 0.898 | 0.854 | 0.737
NCI-H2087 | 0.282 | 0.222 | 0.288 | 0.204 | 0.179 | 0.464 | 0.491 | 0.423 | 0.482 | 0.477 | 0.755 | 0.458 | 0.855 | 0.809 | 0.989 | 1.04 | 1.06 | 1.16 | 0.93 | 1.1
NCI-H2126 | 0.955 | 0.857 | 0.869 | 0.852 | 0.734 | 0.528 | 0.544 | 0.516 | 0.535 | 0.506 | 1.11 | 1.02 | 1.21 | 1.22 | 1.07 | 0.704 | 0.701 | 0.801 | 0.82 | 0.707
NCI-H2228 | 0.297 | 0.266 | 0.279 | 0.224 | 0.219 | 0.29 | 0.525 | 0.452 | 0.284 | 0.244 | 1.08 | 1.18 | 1.26 | 0.983 | 0.876 | 1.29 | 0.775 | 1.35 | 1.08 | 0.743
NCI-H2347 | 0.801 | 0.58 | 0.509 | 0.519 | 0.437 | 0.521 | 0.55 | 0.513 | 0.345 | 0.417 | 1.05 | 1.04 | 0.998 | 1.17 | 1.04 | 0.736 | 0.903 | 0.967 | 0.923 | 0.891
NCI-H2405 | 0.731 | 0.723 | 0.708 | 0.639 | 0.68 | 0.417 | 0.385 | 0.451 | 0.371 | 0.375 | 1.11 | 0.963 | 1.02 | 1.04 | 1.05 | 1.01 | 1.03 | 1.13 | 1.07 | 1.09
NCI-H3122 | 0.436 | 0.391 | 0.412 | 0.352 | 0.293 | 0.411 | 0.379 | 0.399 | 0.36 | 0.288 | 1 | 1.01 | 0.927 | 0.98 | 0.991 | 1.12 | 1.02 | 1.04 | 1.1 | 0.959
PC-3 [JPC-3] | 0.899 | 0.821 | 0.914 | 0.848 | 0.833 | 0.503 | 0.475 | 0.459 | 0.497 | 0.423 | 0.775 | 0.718 | 0.89 | 0.863 | 0.75 | 0.436 | 0.423 | 0.459 | 0.484 | 0.472
PC-14 | 0.604 | 0.524 | 0.514 | 0.481 | 0.414 | 0.535 | 0.69 | 0.431 | 0.607 | 0.254 | 0.94 | 0.639 | 0.979 | 1 | 0.874 | 0.412 | 0.347 | 0.331 | 0.29 | 0.382
RERF-LC-KJ | 0.512 | 0.506 | 0.561 | 0.456 | 0.32 | 0.404 | 0.374 | 0.462 | 0.453 | 0.353 | 1.29 | 0.984 | 1.24 | 1.03 | 1.15 | 0.871 | 0.75 | 0.837 | 0.828 | 0.822
SK-LU-1 | 0.378 | 0.373 | 0.392 | 0.339 | 0.308 | 0.649 | 0.568 | 0.614 | 0.553 | 0.43 | 1 | 1.07 | 1.63 | 1.21 | 0.941 | 0.972 | 0.874 | 0.899 | 0.926 | 0.703
SW 1573 | 0.187 | 0.177 | 0.19 | 0.214 | 0.157 | 0.371 | 0.368 | 0.395 | 0.424 | 0.231 | 1.36 | 0.779 | 1.27 | 0.834 | 0.982 | 1.02 | 1.14 | 1.09 | 1.11 | 1.16
